Calls of active or inactive are those of the source.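 How the source made its calls: active means compounds giving half or more protection of infected cells from virus-caused growth loss, again on retest; inactive means the rest.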 Where a SMILES comes first, the peptide text is derived from it. The star is where a group is joined. Boc = CC(C)(C)OC(=O)*; OSu = O=C1CCC(=O)N1O*
Tested on: CEM cells HIV-1 protection, formazan growth assay
Assay: NCI AIDS Antiviral Assay
Conditions: for IC50: measured here: growth of uninfected CEM cells
Procedure, shortened: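 Steps: treat uninfected and HIV-1-infected human CEM cells at five drug levels; quantify growth by soluble formazan; retest any compound reaching 50% protection; classify actives from the retest.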

SMILES | EC50 [µM] | IC50 [µM] | outcome
CCOC(=O)c1c(NC(=O)Nc2ccccc2)c(C(N)=O)c2n1CCCCC2 | > 100 | > 100 | 
NC(CCP(=O)(O)CCC1C=CC=CC1)C(=O)O (stereo unspecified) | > 200 | > 200 | 
CCCCCCCCCCCCOCC1(COCCCCCCCCCCCC)COC(c2ccc(N)cc2)OC1 | > 200 | > 200 | 
COc1ccc(/C=C2\CN(C)CC3=C2OC(N)=C(C#N)C3c2ccc(OC)cc2)cc1 (stereo unspecified) | > 200 | 19.1 | 
CCCCCc1cc2cc(O)cc(Oc3c(O)cc(O)c(C(=O)O)c3CCCCC)c2c(=O)o1 | > 200 | 34.7 | 
COc1ccc(CCN=C2OCc3ccccc32)cc1OC | > 200 | 11.7 | 
O=C(O)CCC(=O)Nc1ccccc1 | > 200 | > 200 | 
CC1(C)O[C@]2(C)CC[C@@H]1[C@@H](O)[C@@H]2N1CCCCC1 | > 380 | > 380 | 
c1ccc(COC2(OCc3ccccc3)CC3OC2C2NN=NC32)cc1 (stereo unspecified) | > 141 | 9.77 | 
CCOc1ccc(N=NC2C(=O)N(C(=O)CC(=O)Nc3ccccc3)N=C2C)cc1 (stereo unspecified) | > 200 | 20.4 | 
O=C(/C=C/c1ccccc1Cl)c1ccc(Cl)cc1Cl | > 3.31 | > 3.31 | 
Cn1cnc(/C=C/C#N)c1 | > 200 | > 200 | 
CCOP(=O)(OCC)c1cc(NC(=O)c2cc(NC(=O)c3cc(NC(=O)Nc4cc(C(=O)Nc5cc(C(=O)Nc6cc(P(=O)(OCC)OCC)c7cccc(P(=O)(OCC)OCC)c7c6)n(C)c5)n(C)c4)cn3C)cn2C)cc2c(P(=O)(OCC)OCC)cccc12 | > 200 | > 200 | 
COc1ccc(N2C(=O)C3c4[nH]c5ccccc5c4C4CCCCCCC4C3C2=O)cc1 (stereo unspecified) | > 8.71 | > 8.71 | 
CCOc1cc(NCCCN)c2nc(OCc3ccccc3)ccc2c1 | > 200 | 25.7 | 
NC1=NC(=O)CS1 | > 2140 | > 2140 | 
CCCCCCC[CH2][Sn]1([CH2]CCCCCCC)[O]C(=O)c2cccnc2[S]1 | 0.794 | 91.2 | 
Cc1nn(-c2ccccc2)c(-c2ccccc2[N+](=O)[O-])c1CC#N |  |  | inactive
COc1ccc(C2CC(C)=Nc3c([nH]c(=S)[nH]c3=O)N2)cc1 (stereo unspecified) | > 16.6 | > 16.6 | 
CC12CC[C@H](O)C(C)(C)[C@H]1CC[C@](C)(O)C2COc1ccc2ccc(=O)oc2c1 (stereo partly specified) | > 324 | 288 | 
COC(=O)[C@@]12C=CC(=O)[C@H]3C[C@@H](C(C(C)C)C1)[C@]32OC (stereo partly specified) |  |  | inactive
O=C(NS(=O)(=O)Nc1ccccc1)OCc1ccccc1 | > 200 | > 200 | 

SMILES | EC50 [µM] | IC50 [µM] | outcome
COc1ccc2c(c1OC)[C@]13CCCC[C@@H]1[C@H](C2)N(C)CC3 |  |  | inactive
CC1(C)CC(=O)C(CC2C(=O)c3ccccc3C2=O)C(=O)C1C(=O)C(=O)Nc1cccc2ccc(O)cc12 (stereo unspecified) | > 51.3 | > 51.3 | 
CCOP(=O)(OCC)C(C#N)Cc1ccco1 (stereo unspecified) | 41.7 | > 200 | 
Cc1csc2[nH]c3ccccc3[n+]12 |  |  | inactive
CCC(C)c1c(NC(C)=O)o[nH]c1=O (stereo unspecified) | > 200 | > 200 | 
COc1c2c(cc3c1OCO3)[C@]13C=C[C@H](OC)C[C@H]1N(C2)CC3O (stereo partly specified) | > 126 | > 126 | 
C=CCNC(=S)/N=C/C(C(=O)Nc1ccccc1C)=C(\C)O | > 200 | > 200 | 
c1ccc(Nc2nnc(CCCCCCCCc3nnc(Nc4ccccc4)o3)o2)cc1 | > 200 | 107 | 
c1ccc(Oc2ncnc3ccccc23)cc1 | > 200 | 63.1 | 
COC(=O)C(=O)C(C(=O)C(=O)Nc1ccccc1C(=O)OC)c1nc2ccc(C(=O)c3ccccc3)cc2[nH]c1=O (stereo unspecified) | > 89.1 | 52.5 | 
CC(=O)C1(c2ccccc2)CCCN(C)CC1 (stereo unspecified) |  |  | inactive
CC[n+]1c(/C=C/c2cc(C(=O)OC)n3c2sc2ccccc23)sc2ccccc21 | > 200 | 11 | 
Cc1ccc(S(=O)(=O)N2CCNCCN(S(=O)(=O)c3ccc(C)cc3)CCN(S(=O)(=O)c3ccc(C)cc3)CC2)cc1 | > 200 | > 200 | 
Cc1sc2nc(N(C)C)oc(=O)c2c1C | > 200 | 75.9 | 
CC1(C)OC(COCCOCCCCCO)C(COCCOCCCCCO)O1 (stereo unspecified) |  |  | inactive
c1ccc2c(c1)Sc1ccccc1N2CCCN1c2ccccc2Sc2ccccc21 | > 50.1 | > 50.1 | 
CC1=C(Br)CC23C(C1)OC(Br)(C=CC2(C)O)C3(C)C (stereo unspecified) (tested in a mixture with another compound) |  |  | inactive
Cc1ccc(C2C(C(=O)C(C)(C)C)N2S(=O)(=O)c2ccc(C)cc2)cc1 (stereo unspecified) | > 200 | > 200 | 
CC/C(C)=C1/CC(C)(C)N=C1C | > 200 | 89.1 | 
Nc1ncc(C=O)c(NCC2(CO)CCC2)n1 | > 200 | 20.9 | 
CCOC(=O)[C@@H]1ON2O[C@H](OC3CCCCC3c3ccccc3)C[C@H]3OC(=O)[C@@H]1C32 (stereo partly specified) | > 200 | 117 | 
CCCCNC(=S)Nc1nc(C(=O)NNC(=S)NC2CCCCC2)cs1 | > 200 | 170 | 

SMILES | EC50 [µM] | IC50 [µM] | outcome
COC(=O)c1cc(C(=O)OC)c(C/C(=N/Nc2ccc([N+](=O)[O-])cc2[N+](=O)[O-])C(=O)Nc2cccc(C(F)(F)F)c2)nc1C/C(=N/Nc1ccc([N+](=O)[O-])cc1[N+](=O)[O-])C(=O)Nc1cccc(C(F)(F)F)c1 | > 200 | 70.8 | 
CN1CCN(C(=O)/N=N\C(=O)N2CCN(C)CC2)CC1 | > 200 | > 200 | 
O=C(n1c(=O)n(-c2ccc(Cl)cc2)c(=O)n1C(=O)C(Cl)(Cl)Cl)C(Cl)(Cl)Cl | > 200 | > 200 | 
N#Cc1nc(/C=C/c2cccs2)oc1N | > 200 | 107 | 
O=c1c2cc3c(=O)n(O)c(=O)c3cc2c(=O)n1O | > 200 | > 200 | 
NCCN.NCCN.NCCN.O=C([O-])[C@@H](O)[C@@H](O)C(=O)[O-].[Cl-].[Co+3] | > 100 | > 100 | 
COc1cc2c(cc1C)C1=C(C)C(=O)OC1[C@@H](O)[C@@H]2C (stereo partly specified) | > 661 | 245 | 
Nc1nn2cc3c(nc2c1N=Nc1ccccc1)CCC3 | > 200 | > 200 | 
O=C(NNC(=S)Nc1ccccc1)c1cc(-c2ccccc2)nc2ccccc12 | > 200 | 21.9 | 
CC(NC(=O)C(NC(=O)OC(C)(C)C)C(C)C)C(=O)NCC(=O)ON1C(=O)CCC1=O (stereo not drawn) (Boc-Val-Ala-Gly-OSu; configuration not given here) | > 200 | 117 | 
CCOC(=O)/C(=C/c1ccncc1)C(=O)c1ccccc1 | > 129 | > 129 | 
CC1(C)[C@H](CO)C(CO)[C@@H]1n1cnc2c(N)ncnc21 (stereo partly specified) | > 912 | > 912 | 
CC1=NN(c2ccccc2)C(=O)C1N=Nc1ccc(S(=O)(=O)Nc2nnc(C)s2)cc1 (stereo unspecified) |  |  | inactive
CC(=O)OCCOCn1c2c(c(=S)[nH]c1=O)CCC2 | > 200 | > 200 | 
CCCCCCC(N)(CCCCCC)C(=O)Nn1c(C)ccc1C | > 200 | 16.2 | 
CC(=O)NCCCCNCCCNC(C)=O | > 200 | > 200 | 
Cc1ncc([N+](=O)[O-])n1CC[N+](C)([O-])CCCCn1ccnc1[N+](=O)[O-] (stereo unspecified) |  |  | inactive
N=C(N)n1[nH]c2c(c1=O)CCCC2 | > 200 | > 200 | 
OC1(CN2CCCCC2)N=C(c2ccccc2)c2ccsc2-n2cccc21 (stereo unspecified) | > 200 | 117 | 
N#C/C(=C\c1cc(O)c(O)c(O)c1)C(=O)NCCCCNC(=O)/C(C#N)=C/c1cc(O)c(O)c(O)c1 | > 200 | 61.7 | 
Cc1ncc(CC#N)c2c1OC(C)(C)OC2 | > 1150 | > 1150 | 
Clc1ccc(-c2cc(=[N+]3CC[N+](=c4cc(-c5ccc(Cl)cc5)ss4)CC3)ss2)cc1 | 6.31 | 129 | 

SMILES | EC50 [µM] | IC50 [µM] | outcome
Cc1nn(C(=O)c2ccc(Cl)cc2)c2c1C(c1ccco1)SC(N)=N2 (stereo unspecified) | 170 | > 200 | 
COc1cc(/C=C2\C(=O)N(c3ccccc3Cl)C(c3ccccc3)S2(=O)=O)cc(OC)c1OC (stereo unspecified) | > 200 | 85.1 | 
C[C@@]1(Br)C[C@@](C)(Cl)[C@@H](Br)CC1/C=C/Cl (stereo partly specified) | > 200 | 77.6 | 
CC(=O)O[C@H]1CC[C@@]2(C)C(=CC[C@@H]3C2CC[C@]2(C)Nc4oncc4CC32)C1 (stereo partly specified) |  |  | inactive
COc1ccccc1NC(=O)CC(=O)n1nc(C)c(N=Nc2ccccc2C(=O)O)c1C | > 302 | 245 | 
NC(CSCCCO)C(=O)O (stereo unspecified) |  |  | inactive
Nc1nc2c(c(=O)[nH]1)CNC2=O | > 200 | > 200 | 
C=C(c1cccn1S(=O)(=O)c1ccccc1)c1cccn1S(=O)(=O)c1ccccc1 | > 100 | 25.7 | 
CN=C(/N=c1\ssc(=NC)n1C)N(C)C | > 70.8 | 50.1 | 
CCCCCCCCCCc1c2nc(c(CCCCCCCCCC)c3ccc([nH]3)c(CCCCCCCCCC)c3ccc([nH]3)c(CCCCCCCCCC)c3nc1C=C3)C=C2 | > 100 | > 100 | 
O=C1c2c(c(-c3ccccc3)c(-c3ccccc3)c(-c3ccccc3)c2-c2ccccc2)C(=O)N1c1cccc(Br)c1 | > 3.31 | > 3.31 | 
O=C(CC(O)(C(F)(F)F)C(F)(F)Cl)CC(O)(C(F)(F)F)C(F)(F)Cl (stereo unspecified) |  |  | inactive
O=C(O)CCCSC(=O)Nc1ccc(N=Nc2ccccc2)cc1 |  |  | inactive
C=CC[C@@]1(C#N)C[C@H](C[C@]2(C#N)C[C@H](CCl)OC(C)(C)O2)OC(C)(C)O1 | > 200 | 107 | 
CCCCCCc1cc2cc(C(=O)Nc3nc(C45CC6CC(CC(C6)C4)C5)cs3)c(=O)oc2cc1O | > 100 | 8.51 | 
COc1cc(C2SC(N)=Nc3c2c(C)nn3C(=O)c2ccc(Cl)cc2)cc(OC)c1OC (stereo unspecified) | > 200 | > 200 | 
O=C1c2ccccc2-c2nc(-c3ccccc3)cc3c2c1nc1ccccc13 | > 200 | 30.2 | 
O=c1cc(CCc2ccccc2)oc2c(O)ccc(O)c12 |  |  | inactive
N#CC(C#N)=C1/C(=C/C=C/C=C/C=C/c2ccc(N3CCCCC3)s2)S(=O)(=O)c2ccccc21 | > 200 | 93.3 | 

From PubChem BioAssay AID179 (DTP/NCI, 2004)
